What was measured:
[1] = Particle size test (Mastersizer 2000); assay type: physicochemical; details: non-micronized, dispersant n-hexane, fumarate
Procedure: The test conditions for the particle size involved in the present invention are: Mastersizer model: Mastersizer 2000; operation method: 20 mg of bedaquiline fumarate sample is taken, about 5.0 ml dispersant (n-hexane) is added, the sample is subjected to ultrasonication for 1.0 min, is allowed to stabilize for 0.5-1.0 min and then is tested.
Test Procedure: the Hydro2000SM injector was connected and the Small Volume Sample Dispersion Unit tachometer was turned on, then a suitable amount of ethanol was added to the sample cell to clean the detection channel of the instrument. A suitable amount of n-hexane (dispersant) was added to the dispersion cup, a suitable amount of n-hexane (dispersant) was inlet into the instrument to exhaust gas, the stirring rate was set to 2950 rpm, optical correction and background measurement were carried out.
The suspension was added to the sample cell until the opacity was between 15% to 20%, the suspension was allowed to stabilize for 0.5-1.0 min, the measurement time was 4 sec, the test results was saved automatically by the system.

[2] = Solubility of the crystal forms in different solvents at 50° C.; assay type: physicochemical
[3] = N,N-dimethylformamide, fumarate

Row | D (0.1) [1] [um] | D (0.5) [1] [um] | D (0.9) [1] [um] | solubility ([2]; Methanol, fumarate) [g/mL] | solubility [2, 3] [g/mL] | solubility ([2]; Tetrahydrofuran, fumarate) [g/mL] | solubility ([2]; Water) | Compound
1 | 4.991 | 16.303 | 37.967 | 2 | 1 | 1 | insoluble | COc1nc2ccc(Br)cc2cc1[C@@H](c1ccccc1)[C@@](O)(CCN(C)C)c1cccc2ccccc12.O=C(O)/C=C/C(=O)O [Crystal form I, (1R,2S)-1-(6-bromo-2-methoxyquinolin-3-yl)-4-dimethylamino-1-phenyl-2-(1-naphthyl)-2-butanol fumarate]
2 | 3.146 | 12.646 | 37.019 | 6 | 2 | 5 | insoluble | COc1nc2ccc(Br)cc2cc1[C@@H](c1ccccc1)[C@@](O)(CCN(C)C)c1cccc2ccccc12.O=C(O)/C=C/C(=O)O [Crystal form II, (1R,2S)-1-(6-bromo-2-methoxyquinolin-3-yl)-4-dimethylamino-1-phenyl-2-(1-naphthyl)-2-butanol fumarate]
3 | 10.034 | 33.721 | 68.295 | 6 | 3 | 3 | insoluble | COc1nc2ccc(Br)cc2cc1[C@@H](c1ccccc1)[C@@](O)(CCN(C)C)c1cccc2ccccc12.O=C(O)/C=C/C(=O)O [Crystal form III, (1R,2S)-1-(6-bromo-2-methoxyquinolin-3-yl)-4-dimethylamino-1-phenyl-2-(1-naphthyl)-2-butanol fumarate]

From patent US10196360B2, “Crystal forms of bedaquiline fumarate and preparation methods therefor” (Zhejiang Hisun Pharmaceutical Co., Ltd., priority 2015, dated 2019)
